Results: patent US20230201166A1, “METHODS FOR TREATING CANCER BY INHIBITING CARM1” (DANA-FARBER CANCER INSTITUTE, INC., priority 2020, published 2023)

Assays:
[1] = test system: B16F10 tumors; test: B16F10 melanoma tumor model
Experimental: B16F10 or MC38 tumor cells (2×10^5) were injected subcutaneously in 50 μL of PBS into syngeneic C57BL/6J mice. […] Mice receiving an isotype control mAb (Bio X Cell, clone HRPN #BE0088) at the same dose in PBS were used as controls.
For checkpoint blockade experiments, tumor-bearing mice were administered with anti-CTLA4 mAb (clone 9H10, #BP0131, 100 μg/injection) or corresponding isotype control Ab (polyclonal Syrian hamster IgG, 100 μg/mouse). Alternatively, mice received anti-PD1 (clone 29F.1A12, #BE0273, 200 m/injection) or rat IgG2a isotype control Ab, anti-trinitrophenol (Clone: 2A3, 200 μg/injection) starting on day 7 post tumor inoculation and then every 3rd day.

[2] = test system: BT549 TNBC cells; test: T cell cytotoxicity assay, BT549 TNBC cells with NY-ESO-1 TCR human CD8 T cells; format: cell-based; details: pre-treatment 0.1 μM for 24 hours
Experimental: FIG. 3L illustrates that inactivation of Carm1 gene in tumor cells elicits tumor immunity, showing T cell cytotoxicity assay with human BT549 TNBC and human CD8 T cells that expressed a NY-ESO-1 TCR. […] In FIGS. 3A-3L, two-way ANOVA was used to determine statistical significance for tumor measurements at time points when all mice were alive. Statistical significance for survival of mice in each treatment group were calculated by Log-rank (Mantel-Cox) test. Bar graphs represent data summarized as mean±S.E.M. and were analyzed by unpaired two-sided Mann-Whitney test. Data shown are representative of three experiments. *p<0.05, **p<0.01, ***p<0.001, ****p<0.0001, ns (non-significant).
T cell cytotoxicity assay using human tumor cells was performed using NY-ESO-1 transduced human CD8 T cells and BT549 human triple negative breast cancer cells which were HLA-A02*01 positive and endogenously expressed the NY-ESO-1 antigen. BT549 cells were co-cultured with human CD8 T cells that expressed a NY-ESO-1 TCR at increasing effector to target (E:T) ratios for 12-72 hours. Cytotoxicity was quantified by flow cytometry. All in vitro cytotoxicity assays were performed in human or murine T cell media (without addition of IL-2).

[3] = test system: CARM1 activity in tumor cells; test: CARM1 activity in tumor cells (me2BAF155 western blot); format: cell-based, human; details: sub-micromolar levels
Experimental: BAF155 is a well-validated target of CARM1. […] Western blots were probed with Abs specific for di-methylated BAF155 protein (me2BAF155), total BAF155 protein and β-actin (loading control).
Whole cell extracts were prepared by lysis and sonication of cells in RIPA buffer [20 mM Tris-HCl (pH 7.5), 150 mM NaCl, 1 mM EDTA, 1 mM EGTA, 1% NP-40, 1% sodium deoxycholate, 2.5 mM sodium pyrophosphate, 1 mM β-glycerophosphate, 1 mM Na3VO4, 1 μg/ml leupeptin] supplemented with Halt Protease and Phosphatase Inhibitor Cocktail (ThermoFisher). Protein concentrations were determined using a Bradford Protein Assay (Bio-Rad). Protein samples (20 […]g) were resolved by SDS-PAGE using 4-12% NuPAGE Novex Bis-Tris mini gels (ThermoFisher) and transferred onto a PVDF membrane (Bio-Rad). Blots were blocked in 5% Blocker powder (Bio-Rad), 0.2% Tween in PBS and then incubated overnight with primary antibodies. Following incubation with secondary detection reagents and subsequent washing, blots were incubated in Western Lightening Plus-ECL substrate (PerkinElmer). Luminescence was captured using a ChemiDoc MP system (Bio-Rad Laboratories).

[4] = test system: malignant melanoma xenograft model; details: oral dosing; cited from earlier work
[5] = test system: B16F10 melanomas; test: Flow cytometry of tumor-infiltrating immune cells, B16F10 melanomas treated with CARM1 inhibitor; format: in vivo, mouse
Excerpt: FIG. 15A illustrates changes in tumor microenvironment induced by monotherapy or combination therapy with CARM1 inhibitor, showing treatment of mice with B16F10 melanomas with CARM1 inhibitor or vehicle control. Mice also received isotype control, CTLA-4 or PD-1 mAbs, as indicated (n=5 mice/group). Representative flow plots of CD8 T cells gated on live/singlets/CD45+/CD3+ cells from indicated groups are shown on left. Quantification of CD8 T cells is shown as percentage of CD3+ T cells (middle) or number per gram of tumor (right) for the indicated treatment groups.
FIG. 15B illustrates changes in tumor microenvironment induced by monotherapy or combination therapy with CARM1 inhibitor, showing number of intra-tumoral granzyme B+CD8+ T cells per gram of tumor for the indicated treatment groups (n=5 mice/group). Representative flow plots are shown on left.
FIG. 15C illustrates changes in tumor microenvironment induced by monotherapy or combination therapy with CARM1 inhibitor, showing number of intra-tumoral IL2+CD8+ T cells per gram of tumor for the indicated treatment groups (n=5 mice/group).
FIG. 15D illustrates changes in tumor microenvironment induced by monotherapy or combination therapy with CARM1 inhibitor, showing number of intra-tumoral IFNγ+CD8+ T cells per gram of tumor for the indicated treatment groups (n=5 mice/group). Representative flow plots are shown on left.
FIG. 15E illustrates changes in tumor microenvironment induced by monotherapy or combination therapy with CARM1 inhibitor, showing number of intra-tumoral perforin+CD8+ T cells per gram of tumor for the indicated treatment groups (n=5 mice/group).
FIG. 15F illustrates changes in tumor microenvironment induced by monotherapy or combination therapy with CARM1 inhibitor, showing analysis of intra-tumoral PD1+CD8+ T cells (quantified as percentage of CD8+ T cells) for the indicated treatment groups (n=5 mice/group). Representative flow plots (left) and quantification of PD-1 expression as percentage of CD8 T cells (middle) or MFI (right) are shown.
FIG. 16A illustrates changes in tumor microenvironment induced by monotherapy or combination therapy with CARM1 inhibitor, showing treatment of mice with B16F10 melanomas with CARM1 inhibitor or vehicle control. Mice also received isotype control, CTLA-4 or PD-1 mAbs, as indicated (n=5 mice/group). Quantification of CD4+ T cells (number per gram of tumor) for the indicated treatment groups.
FIG. 16B illustrates changes in tumor microenvironment induced by monotherapy or combination therapy with CARM1 inhibitor, showing quantification of IFNγ+ cells (as percentage of CD4+ T cells) for the indicated treatment groups.
FIG. 16C illustrates changes in tumor microenvironment induced by monotherapy or combination therapy with CARM1 inhibitor, showing quantification of FoxP3+ Treg cells (as percentage of CD4+ T cells) for the indicated treatment groups.
FIG. 16D illustrates changes in tumor microenvironment induced by monotherapy or combination therapy with CARM1 inhibitor, showing quantification of the CD8/FoxP3 Treg ratio for the indicated treatment groups.
FIG. 16E illustrates changes in tumor microenvironment induced by monotherapy or combination therapy with CARM1 inhibitor, showing number of intra-tumoral NK cells (left), dendritic cells (live, singlet, CD45+CD3−F4/80-CD11c+ MHCII^hi) (middle) and macrophages (live, singlet, CD45+CD3−F4/80+) (right) calculated per gram of tumor.
Inhibitor treatment was performed for 14 days because limited quantities of the compound were available.
Tumors were excised on day 18 following tumor cell inoculation and cut into small pieces using sterile scalpels in serum-free RPMI 1640 media (ThermoFisher #11875093). […]

[6] = 150 mg/kg b.i.d. orally days 7-21, in combination with CTLA-4 mAb
[7] = all three CARM1 inhibitor treatment groups
[8] = combined with PD-1 or CTLA-4 mAbs

**Q.** Which “sensitization of tumors to checkpoint blockade” value [1, 6] does the source give for `CNC[C@@H](O)COc1ccc(Cl)c(-c2nc(-c3c(C)noc3C)c(C)c(N3CC4(CCN(C(=O)OC)CC4)C3)n2)c1` (stereo in doubt) [EZM2302] here?
**A.** sensitized B16F10 melanomas to checkpoint blockade with a CTLA-4 mAb

**Q.** What about the survival [1, 6] of the same molecule?
**A.** significant survival benefit

**Q.** And the B16F10 tumor growth ([1]; oral, 150 mg/kg/day, B16F10 tumor bearing mice)?
**A.** significantly suppresses B16F10 tumor growth

**Q.** What about the “CD8 T cell-mediated cytotoxicity” value [2] of the same molecule?
**A.** enhanced CD8 T cell-mediated cytotoxicity

**Q.** What about the “suppression of CARM1 activity in tumor cells” value [3] of the same molecule?
**A.** suppress CARM1 activity

**Q.** What about the anti-tumor activity [4] of the same molecule?
**A.** anti-tumor activity

**Q.** And the “in vivo CARM1 inhibition” value [4]?
**A.** dose-dependent in vivo CARM1 inhibition

**Q.** And the “number of CD8 T cells (per gram of tumor) that expressed granzyme B, IL-2, IFNγ, and perforin” value [5, 7]?
**A.** striking increase

**Q.** What about the “tumor-infiltrating NK cells” value [5, 7] of the same molecule?
**A.** increased

**Q.** What about the macrophage numbers ([5]; any of the treatment groups) of the same molecule?
**A.** no changes in macrophage numbers

**Q.** What about the “CD8 T cell infiltration” value [5, 8] of the same molecule?
**A.** even higher

**Q.** What about the cDC1 cells [5, 8] of the same molecule?
**A.** increased

**Q.** And the “tumor-infiltrating NK cells” value [5, 8]?
**A.** highest

**Q.** What about the “PD-1 expression by CD8 T cells” value ([5]; compared to vehicle control group) of the same molecule?
**A.** reduced

**Q.** And the “CD8 T cell infiltration” value ([5]; monotherapy)?
**A.** substantially increased

**Q.** And the “number of tumor-infiltrating CD4 T cells or FoxP3+ Tregs” value ([5]; mouse, in vivo)?
**A.** did not change
